The values that follow come from patent US20180258381A1, “BIO-LAMINA BIOREACTORS AND METHODS OF MAKING AND USING THE SAME” (Oregon State University, priority 2015, published 2018).

Where only a bound is given, the exact number is not on record here.

Assay [1] concerns methanol dehydrogenase (MDH). The experiment in a line: MeOH consumption of fresh sMMO expressing culture exposed to cPOH. Particulars: highest concentration of cPOH added with 1 mM MeOH. The assay is classed as cell-based, M. trichosporium OB3b. As for the experimental part: In the absence of CH4, sMMO expressing OB3b in alginate beads were incubated 18 h with cyclopropane (CP, FIG. 36A) and produced an oxidized product hypothesized to be cyclopropanol (cPOH). cPOH is more water soluble than CP, enabling removal of CP by purging the headspace with air (FIG. 36B). Work is progressing on the identification cPOH by mass spec analysis. […] Inhibition of MDH was confirmed by exposing fresh non-inhibited sMMO expressing M. trichosporium OB3b to cPOH (FIG. 36D).
In the absence of cPOH 1 mM MeOH was consumed <10 minutes, but when cPOH was added with 1 mM MeOH there was a concentration dependent effect on the rate of MeOH consumption. At low and medium cPOH concentrations, significant amounts of MeOH were consumed before the initial time points could be taken.

The subject of assay [2] is M. trichosporium OB3b culture. The experiment in a line: Column packed with culture immobilized in alginate beads, cPOH inhibition. It is filed as cell-based. On the procedure: In parallel with the BLP reactor runs, the response of methane consumption and MeOH production in a column packed with M. trichosporium OB3b culture immobilized in alginate beads (0.4 mg cell protein total) was evaluated. The column was incubated under batch conditions for 18 hours with cPOH, then quickly flushed with ˜10 pore volumes of dilute growth media, before dilute media flow containing ˜200 μM CH4 was begun at a rate of 41 ml/hour (FIG. 38). Over the course of day 1, 80±10% of influent CH4 was consumed and MeOH accumulated with an efficiency (MeOH produced/CH4 consumed) of 94±21%. […] To see if MeOH production could be renewed, the column was again exposed to cPOH for 18 hours as previously described. On days 3, 4, and 7, 66±8% of influent CH4 was consumed and MeOH accumulated with an efficiency of >90%.

Another assay concerns MDH. The experiment in a line: cPOH inhibition of MDH of culture immobilized in alginate beads. The assay is classed as cell-based. The text has this: The examples described above can be used to determine optimal cPOH concentrations and exposure time to maximize MeOH production. In some examples, cPOH inhibition is rapid and irreversible. In some examples, cPOH inhibited MDH of culture immobilized in alginate beads in less than 100 seconds, and MDH inhibition was maintained after alginate beads were rinsed to remove cPOH.

The test system of a further assay is OB3b cells. The experiment in a line: Long term packed column experiment, cyclopropanol inhibition. It is filed as cell-based, M. trichosporium OB3b. On the procedure: In some examples, OB3b cells were harvested from the chemostats described herein to make alginate beads for a long term packed column experiment. Total cell mass within the column was 300 mg with and the column void space was 6 mL. The flow rates of a methane solution (2 mg/L) were varied and the inlet and outlet concentrations were measured for a methane consumption efficiency curve shown in FIG. 45A.
An increase in methane consumption with an increase in residence time was observed. The column was then inhibited with cyclopropanol (1/10 dilution) for 18 hours. A flow rate of 2 mL/min was used for all further testing. Methane consumption decreased from 0.21 μmol/hr to 0.15 μmol/hr after the inhibition, while 0.13 μmol/hr of methanol was produced. After 24 hours methanol production decreased to 0.06 μmol/hr and methane consumption increased to 0.24 μmol/hr. The inhibition process was repeated for 18 hours and methanol production evaluated under the same operating conditions. The maximum methanol production rates lasted about 3 hours, and then declined, while methane consumption was maintained. Overall, the column responded similarly to two inhibitions ran at constant flow for two weeks with little problem.

In a further assay the test system is M. trichosporium OB3b. The experiment in a line: Chemostat inhibition with cyclopropanol. It is filed as cell-based. The text has this: In one embodiment, a seven-liter chemostat was used to grow a culture of M. trichosporium OB3b without copper present, therefore expressing sMMO. The temperature-controlled jacketed reactor has multiple input and output lines for gas and liquid feed, a paddle stirrer for agitation, sensors for continuous monitoring of pH and DO, and metered oxygen delivery tied to a DO concentration set-point. The reactor was inoculated with a dilute culture of M. trichosporium OB3b and operated in batch mode for approximately one month before continuous fluid flow was established. […] A second two-liter chemostat growing a culture of M. trichosporium OB3b with copper present, expressing pMMO, also was used.
Cyclopropanol was added under batch-flow conditions with no methane being fed to the reactor to limit methanol competition for MDH and increase the effectiveness of the inhibitor. Methanol accumulated in solution for about 24 hours and then was slowly washed from the reactor (FIG. 35A). The microbial methanol production rate in the chemostat peaked within 24 hours at about 0.5 mg/(L*h) and was essentially zero after two days (FIG. 35B).
The activity results remained stable at the above values for 5 days after inhibition with cyclopropanol present throughout. […] Complete shutdown of methane oxidation within the chemostat most likely occurred due to very successful inhibition of MDH resulting in a loss of reducing power needed for MMO operation. […] By day 8, methane utilization and oxygen uptake were restored in the chemostat and the biomass concentration increased back to pre-inhibition values. […] The chemostat inhibition experiment is being conducted again with modifications to the concentration of inhibitor and conditions of inhibition in attempt to produce conditions for continuous methanol production and to maintain higher methane oxidation rates throughout.
In the first two embodiments an estimated 75 μg/L cyclopropanol (cPOH) was added to the chemostat. Methanol production by M. trichosporium OB3b within the chemostat lasted less than 12 hours. Following initial methanol production, cell growth ceased and cells began washing out of the reactor. Once signs of washout were observed formate was added to the chemostat to a concentration of 10 mM. […] In subsequent attempts at methanol production, smaller cyclopropanol additions were used in an attempt to inhibit the organisms enough to produce methanol without disrupting their ability to grow fast enough to avoid washout. […] In each case, a peak in cumulative methanol production was reached followed by a decline indicating the recovery of the methanol oxidation capability of the culture (FIG. 43). […] Since the cyclopropanol concentrations used in these examples were below the detection limit of the analytical method, the cyclopropanol fate in the chemostat is uncertain in some embodiments.
Throughout each experiment specific oxygen utilization rate (SOUR) tests were conducted with samples from the chemostat as indicators of MDH and methane monooxygenase (MMO) activity (FIGS. 44A and 44B). Methanol SOURs indicate essentially immediate inhibition of MDH activity, although it took up to 1 hour to reach a minimum in activity. Significant methane inhibition is indicated in the methane SOURs and it occurs with essentially the same magnitude and time scale as the methanol SOUR results. The recovery of MDH indicated by SOUR tests correlated with the observed reduction in cumulative methanol production in the chemostat. […] A peak in DO concentration was reached first followed by a peak in pH and lastly methanol concentration. The increase in pH and DO is expected to be the result of incomplete methane oxidation and a subsequent reduction in CO2 production.

Where [3] appears, read: day 1, after 18 hours with cPOH.
Setting [4] is: days 3, 4, and 7, after second 18 hours cPOH exposure.
Where [5] appears, read: after inhibition with cyclopropanol (1/10 dilution) for 18 hours, flow 2 mL/min.
[6] abbreviates: post-inhibition microbial activity sampling.

As for `OC1CC1` [cPOH, cyclopropanol], in assay [1], the “effect on rate of MeOH consumption” value is given as “significantly slowed MeOH consumption”. In assay [2] (setting [3]), the “MeOH accumulation efficiency (MeOH produced/CH4 consumed)” value stood at 94±21% and the “influent CH4 consumed” value is reported as 80±10%. Further, in assay [2] (day 2), the MeOH accumulation entry is “no MeOH accumulated” and the “influent CH4 consumed” value turned out to be 67±6%. For the same molecule, in assay [2] (setting [4]), the “MeOH accumulation efficiency (MeOH produced/CH4 consumed)” value is given as more than 90% and the “influent CH4 consumed” value was found to be 66±8%. The “time to inhibit MDH” value in the assay with MDH is listed as “less than 100 seconds”. Also, in the assay with OB3b cells (24 hours after inhibition), the methane consumption was 0.24 µmol/h and the methanol production is 0.06 µmol/h. Besides, in the assay on OB3b cells (setting [5]), the methane consumption turned out to be 0.15 µmol/h and the methanol produced was determined as 0.13 µmol/h. The “duration of methanol production” value in the assay with M. trichosporium OB3b (addition of 2-8 mg/L cyclopropanol) is 2 to 6 h. Further, the “effects on pH and DO concentrations within the chemostat” value in the assay on M. trichosporium OB3b (cPOH additions to reach 0.5 μg/L or lower) was “no discernable effects”. The “duration of methanol production within the chemostat” value in the assay with M. trichosporium OB3b (estimated 75 μg/L cyclopropanol added) is recorded as “less than 12 hours”. The “peak microbial methanol production rate in the chemostat” value in the assay with M. trichosporium OB3b (peaked within 24 hours after cyclopropanol addition) is reported as “about 0.5 mg/(L*h)”. For the same molecule, in the assay on M. trichosporium OB3b (setting [6]), the “reduction in batch methane oxidation rate” value is recorded as 94%, the “reduction in ethylene oxidation rate” value worked out at 97%, the “reduction in formate-dependent oxygen uptake rate” value is recorded as 20-25% and the “reduction in methanol-dependent oxygen uptake rate” value is listed as 95%.
